Experimental data reported in patent US20190069553A1, “METHOD FOR CONTROLLING PPO RESISTANT WEEDS” (BASF SE, priority 2016, published 2019).
Where two headings read alike, the source gives them in different places.

Columns and labels:
Type in all cases: in vivo
[1] = system: Amaranthus tamariscinus (common waterhemp, AMATA), PPO resistant biotype 8 (w.12); assay: Greenhouse herbicidal activity test, third experiment, weed w.12; conditions: use rate 4 g/ha; PPO resistant biotype 8 common waterhemp; scale 0 to 100
[2] = system: Amaranthus tamariscinus (common waterhemp, AMATA), sensitive biotype (w.10); assay: Greenhouse herbicidal activity test, third experiment, weed w.10; conditions: scale 0 to 100
[3] = system: Amaranthus tamariscinus (common waterhemp, AMATA), PPO resistant biotype 7 (w.11); assay: Greenhouse herbicidal activity test, third experiment, weed w.11; conditions: use rate 4 g/ha; PPO resistant biotype 7 common waterhemp; scale 0 to 100
[4] = system: Amaranthus tuberculatus (tall waterhemp, AMATU), sensitive biotype (w.7); assay: Greenhouse herbicidal activity test, another (second) experiment, weed w.7; conditions: scale 0 to 100
[5] = system: Ambrosia elatior (common ragweed, AMBEL), sensitive biotype (w.4); conditions: scale 0 to 100
[6] = system: Amaranthus tamariscinus (common waterhemp, AMATA), sensitive biotype (w.1); conditions: scale 0 to 100

| SMILES | Weed control (%) w.12 [1] [%] | Weed control (%) w.10 ([2]; use rate 2 g/ha) [%] | Weed control (%) w.10 ([2]; use rate 4 g/ha) [%] | Weed control (%) w.11 [3] [%] | Weed control (%) 7 ([4]; use rate 1 g/ha) [%] | Weed control (%) 7 ([4]; use rate 2 g/ha) [%] | Weed control (%) w.4 ([5]; use rate 1 g/ha) [%] | Weed control (%) w.4 ([5]; use rate 2 g/ha) [%] | Weed control (%) w.1 ([6]; use rate 1 g/ha) [%] | Weed control (%) w.1 ([6]; use rate 2 g/ha) [%] |
| --- | --- | --- | --- | --- | --- | --- | --- | --- | --- | --- |
| C#CCOc1cc(-n2nc3n(c2=O)CCCC3)c(Cl)cc1Cl [azafenidin, reference compound] | 72 | 95 | 98 | 73 | – | – | – | – | – | – |
| CCOC(=O)COc1ncccc1Oc1cc(-n2c(=O)cc(C(F)(F)F)n(C)c2=O)c(F)cc1Cl [compound (I).1, ethyl [3-[2-chloro-4-fluoro-5-(1-methyl-6-trifluoromethyl-2,4-dioxo-1,2,3,4-tetrahydropyrimidin-3-yl)phenoxy]-2-pyridyloxy]acetate] | – | – | – | – | 100 | 100 | 100 | 100 | 100 | 100 |
| CCOC(=O)COc1ccccc1Oc1cc(-n2c(=O)cc(C(F)(F)F)n(C)c2=O)c(F)cc1Cl [compound (I).4] | 99 | 100 | 100 | 100 | – | – | – | – | – | – |
| C#CCN1C(=O)COc2cc(F)c(N3C(=O)C4=C(CCCC4)C3=O)cc21 [flumioxazin, reference compound] | – | – | – | – | – | – | 50 | 65 | 90 | 95 |
